The values that follow come from patent publication US10519134B2, “Pyrazole compounds and methods of making and using same” (Lundbeck La Jolla Research Center, Inc., priority 2015, dated 2019).

SMILES strings stand for the structures. pIC50: −log10 of the molar value.

The target in one experiment is T1, FAAH (Mus musculus, UniProt O08914).
T1 construct: Proteomes (mouse brain membrane fraction or cell lysates); from tissue; host or cells: mouse brain membrane fraction (or cell lysates)
T1 sequence (O08914 1-579): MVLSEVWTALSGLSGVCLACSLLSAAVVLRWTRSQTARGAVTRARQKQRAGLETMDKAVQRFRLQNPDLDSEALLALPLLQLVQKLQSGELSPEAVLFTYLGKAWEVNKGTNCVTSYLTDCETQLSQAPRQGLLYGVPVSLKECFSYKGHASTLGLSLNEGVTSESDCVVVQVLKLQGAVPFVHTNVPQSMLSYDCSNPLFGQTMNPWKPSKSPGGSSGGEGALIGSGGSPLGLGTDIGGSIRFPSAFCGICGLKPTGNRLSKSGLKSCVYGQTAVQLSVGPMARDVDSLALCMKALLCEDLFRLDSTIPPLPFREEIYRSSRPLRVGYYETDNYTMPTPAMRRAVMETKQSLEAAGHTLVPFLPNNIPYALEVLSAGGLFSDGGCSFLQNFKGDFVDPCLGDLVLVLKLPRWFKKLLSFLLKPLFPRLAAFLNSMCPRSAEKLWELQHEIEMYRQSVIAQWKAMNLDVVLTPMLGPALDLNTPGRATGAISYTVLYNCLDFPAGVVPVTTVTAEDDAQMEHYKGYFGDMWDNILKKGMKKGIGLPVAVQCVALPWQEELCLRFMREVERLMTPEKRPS
Nature of the experiment: In vitro competitive activity-based protein profiling (mouse), FAAH gel band. The format is biochemical. The note with it: for inhibition at 1 µM: read-out: FAAH % inh. 1 μM; for pIC50: mouse. A digest of the protocol:
(§1)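 Gel-based competitive ABPP: proteome 1.0 mg/mL, inhibitor 30 min 37 °C, then FP-Rh or HT-01 probe (stock 50 μM) 30 min 37 °C; SDS quench, SDS-PAGE, in-gel fluorescence of the enzyme band quantified.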

The next experiment concerns the target T2, MAGL (Mus musculus, UniProt O35678).
T2 construct: Proteomes (mouse brain membrane fraction or cell lysates); from tissue; host or cells: mouse brain membrane fraction (or cell lysates)
T2 sequence (O35678 1-303): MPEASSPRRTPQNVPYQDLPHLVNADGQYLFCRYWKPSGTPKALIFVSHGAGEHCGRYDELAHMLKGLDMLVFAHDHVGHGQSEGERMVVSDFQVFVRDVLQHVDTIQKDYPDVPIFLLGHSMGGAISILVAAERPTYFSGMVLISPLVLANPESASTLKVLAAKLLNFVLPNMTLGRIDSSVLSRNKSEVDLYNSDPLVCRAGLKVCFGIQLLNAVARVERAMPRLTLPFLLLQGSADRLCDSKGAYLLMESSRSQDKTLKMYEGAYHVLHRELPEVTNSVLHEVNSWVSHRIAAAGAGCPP
Nature of the experiment: In vitro competitive activity-based protein profiling (mouse), MAGL gel band. Format: biochemical. The conditions noted are these: for inhibition at 1 µM: read-out: MAGL % inh. 1 μM; for pIC50: mouse. A digest of the protocol: as §1

As to `CS(=O)(=O)Nc1ccn(C(=O)N2CCC3(CCCN3Cc3ccc(C(F)(F)F)cc3N3CCN(S(C)(=O)=O)CC3)CC2)n1` [Example 255, N-(1-(1-(2-(4-(methylsulfonyl)piperazin-1-yl)-4-(trifluoromethyl)benzyl)-1,8-diazaspiro[4.5]decane-8-carbonyl)-1H-pyrazol-3-yl) methanesulfonamide], the inhibition at 1 µM on FAAH and on MAGL was 0 to 25% throughout.

As usually defined, the pIC50 is the negative decadic logarithm of the IC50, by convention in mol/L. Regarding `CS(=O)(=O)Nc1ccn(C(=O)N2CCN(Cc3ccc(Cl)cc3N3CC4CCC(C3)O4)CC2)n1` [Example 256, N-(1-(4-(2-(8-oxa-3-azabicyclo[3.2.1]octan-3-yl)-4-chlorobenzyl)piperazine-1-carbonyl)-1H-pyrazol-3-yl) methanesulfonamide], at FAAH, the pIC50 is 5.00 to 6.00 and the inhibition at 1 µM was 0 to 25%. For the same molecule, on MAGL, the pIC50 is ≥ 7.00 and the inhibition at 1 µM is ≥ 75%.

Consider `CS(=O)(=O)Nc1ccn(C(=O)N2CCN(Cc3cc(N4CCOCC4)ccc3Cl)CC2)n1` [Example 258, N-(1-(4-(2-chloro-5-morpholinobenzyl)piperazine-1-carbonyl)-1H-pyrazol-3-yl) methanesulfonamide], for which the inhibition at 1 µM at FAAH and on MAGL was 0 to 25% throughout.

Consider `CS(=O)(=O)Nc1ccn(C(=O)N2CCN(Cc3ccc(C(F)(F)F)cc3-c3nnn[nH]3)CC2)n1` [Example 259, N-(1-(4-(2-(1H-tetrazol-5-yl)-4-(trifluoromethyl)benzyl)piperazine-1-carbonyl)-1H-pyrazol-3-yl) methanesulfonamide], for which the inhibition at 1 µM on FAAH lay in the range of 0 to 25%; on MAGL it was 50 to 75%.

Take `CS(=O)(=O)Nc1ccn(C(=O)N2CCN(Cc3ccc(Cl)c(-c4nnco4)c3)CC2)n1` [Example 260, N-(1-(4-(4-chloro-3-(1,3,4-oxadiazol-2-yl)benzyl)piperazine-1-carbonyl)-1H-pyrazol-3-yl) methanesulfonamide]: the inhibition at 1 µM on FAAH was 0 to 25%; on MAGL, ≥ 75%.

For the molecule `CS(=O)(=O)Nc1ccn(C(=O)N2CCN(Cc3ccc(Cl)c(-c4ncon4)c3)CC2)n1` [Example 261, N-(1-(4-(4-chloro-3-(1,2,4-oxadiazol-3-yl)benzyl)piperazine-1-carbonyl)-1H-pyrazol-3-yl) methanesulfonamide], the results for the inhibition at 1 µM on FAAH and at MAGL were 0 to 25% and ≥ 75%, respectively.

For the molecule `CC(C)C(=O)Nc1ccn(C(=O)N2CCN(Cc3ccc(C(F)(F)F)cc3N3CCCC3)CC2)n1` [Example 263, N-(1-(4-(2-(pyrrolidin-1-yl)-4-(trifluoromethyl)benzyl)piperazine-1-carbonyl)-1H-pyrazol-3-yl)isobutyramide], on FAAH, the pIC50 is 5.00 to 6.00 and the inhibition at 1 µM was in the range of 0 to 25%. On MAGL, the pIC50 was 6.00 to 7.00 and the inhibition at 1 µM is ≥ 75%.

For the molecule `CS(=O)(=O)Nc1ccn(C(=O)N2CCC3(CCCN3Cc3ccc(Cl)cc3N3CCOCC3)CC2)n1` [Example 264, N-(1-(1-(4-chloro-2-morpholinobenzyl)-1,8-diazaspiro[4.5]decane-8-carbonyl)-1H-pyrazol-3-yl) methanesulfonamide], the inhibition at 1 µM at FAAH lay within 0 to 25%; on MAGL, 25 to 50%.

For the molecule `CC(=O)Nc1ccn(C(=O)N2CCC3(CCCN3Cc3ccc4nc(C)oc4c3)CC2)n1` [Example 265, N-(1-(1-((2-methylbenzo[d]oxazol-6-yl)methyl)-1,8-diazaspiro[4.5]decane-8-carbonyl)-1H-pyrazol-3-yl)acetamide], at FAAH, the pIC50 was 5.00 to 6.00 and the inhibition at 1 µM was in the range of 0 to 25%. Besides, at MAGL, the pIC50 is 6.00 to 7.00 and the inhibition at 1 µM is ≥ 75%.

As for `CS(=O)(=O)Nc1ccn(C(=O)N2CCN(Cc3ccc(Cl)c(C4CCCC4)c3)CC2)n1` [Example 272, N-(1-(4-(4-chloro-3-cyclopentylbenzyl)piperazine-1-carbonyl)-1H-pyrazol-3-yl) methanesulfonamide], the inhibition at 1 µM on FAAH was 0 to 25%; on MAGL, ≥ 75%.
